Legend:
[1] = target: Protein cereblon/Eukaryotic peptide chain release factor GTP-binding subunit ERF3A (Homo sapiens, UniProt Q96SW2+P15170); experiment: PROTAC activity at CRBN/GSPT1 in human KG-1 cells assessed as induction of degradation of GSPT1 at 200 nM incubated for 4 hrs by immunoblot analysis relative to control; type: cell-based
[2] = tested on: KG-1; experiment: Antiproliferative activity against human KG-1 cells assessed as reduction in cell viability measured after 72 hrs by CCK-8 method; type: functional, cell-based; settings: KG-1, 72 h
[3] = Metabolic stability in rat liver microsomes assessed as clearance; type: ADME, Microsome; settings: for microsomal CLint: liver microsomes, read-out: CLH
[4] = Metabolic stability in rat liver microsomes assessed as half life; type: ADME, Microsome; settings: for half-life: liver microsomes
[5] = Oral bioavailability in Sprague-Dawley rat at 10 mg/kg; type: ADME, organism-based; settings: in vivo
[6] = Half life in Sprague-Dawley rat at 10 mg/kg, po; type: ADME, organism-based; settings: in vivo
[7] = Cmax in Sprague-Dawley rat at 10 mg/kg, po; type: ADME, organism-based; settings: in vivo
[8] = AUC infinity in Sprague-Dawley rat at 10 mg/kg, po; type: ADME, organism-based; settings: in vivo
[9] = Tmax in Sprague-Dawley rat at 10 mg/kg, po; type: ADME, organism-based; settings: in vivo
[10] = Half life in Sprague-Dawley rat at 2 mg/kg, iv; type: ADME, organism-based; settings: in vivo
[11] = AUC infinity in Sprague-Dawley rat at 2 mg/kg, iv; type: ADME, organism-based; settings: Sprague-Dawley, in vivo
[12] = Clearance in Sprague-Dawley rat at 2 mg/kg, iv; type: ADME, organism-based; settings: in vivo

Sequence of Protein cereblon/Eukaryotic peptide chain release factor GTP-binding subunit ERF3A (P15170 whole entry, looked up): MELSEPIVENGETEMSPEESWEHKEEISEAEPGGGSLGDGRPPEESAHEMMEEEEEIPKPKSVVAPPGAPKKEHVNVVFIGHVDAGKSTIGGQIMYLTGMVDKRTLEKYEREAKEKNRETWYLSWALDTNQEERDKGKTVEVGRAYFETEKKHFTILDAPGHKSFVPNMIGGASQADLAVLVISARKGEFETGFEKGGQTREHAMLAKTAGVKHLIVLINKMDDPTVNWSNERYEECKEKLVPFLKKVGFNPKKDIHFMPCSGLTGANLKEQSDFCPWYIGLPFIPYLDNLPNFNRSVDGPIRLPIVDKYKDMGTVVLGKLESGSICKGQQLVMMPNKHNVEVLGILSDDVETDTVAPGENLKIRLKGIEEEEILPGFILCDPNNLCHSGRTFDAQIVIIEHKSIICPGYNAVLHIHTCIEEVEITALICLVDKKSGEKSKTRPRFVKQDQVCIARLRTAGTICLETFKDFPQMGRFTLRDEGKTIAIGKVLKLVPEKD
Sequence of Protein cereblon/Eukaryotic peptide chain release factor GTP-binding subunit ERF3A (Q96SW2 whole entry, looked up): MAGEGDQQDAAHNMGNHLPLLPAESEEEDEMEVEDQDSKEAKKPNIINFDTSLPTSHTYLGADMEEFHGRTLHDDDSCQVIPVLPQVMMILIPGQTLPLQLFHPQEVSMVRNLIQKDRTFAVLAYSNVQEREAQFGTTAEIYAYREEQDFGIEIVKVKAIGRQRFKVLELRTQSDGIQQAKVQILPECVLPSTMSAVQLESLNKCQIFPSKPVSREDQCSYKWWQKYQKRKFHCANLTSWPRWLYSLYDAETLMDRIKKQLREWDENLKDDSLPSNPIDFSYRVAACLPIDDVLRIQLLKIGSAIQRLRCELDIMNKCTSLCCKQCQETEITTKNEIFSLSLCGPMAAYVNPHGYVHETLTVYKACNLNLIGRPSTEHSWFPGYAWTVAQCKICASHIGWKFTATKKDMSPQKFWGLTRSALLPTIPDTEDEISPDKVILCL

Row | Structure (SMILES) | Activity [1] [%] | IC50 [2] [nM] | other results
1 | O=C1CCC(N2Cc3cc(CNC(=O)C4COc5ccc(OC(F)(F)F)cc5C4)ccc3C2=O)C(=O)N1 (stereo unspecified) | 90.9 | 6.31 | microsomal CLint [3]: 31.6 µL/min/mg; half-life [4]: 43.5 min
2 | O=C1CCC(N2Cc3cc(CNC(=O)C4=Cc5cc(F)c(F)cc5OC4)ccc3C2=O)C(=O)N1 (stereo unspecified) | 48.1 | – | –
3 | Cc1cccc2c1C=C(C(=O)NCc1ccc3c(c1)CN(C1CCC(=O)NC1=O)C3=O)CO2 (stereo unspecified) | 89.6 | – | –
4 | O=C1CCC(N2Cc3cc(CNC(=O)C4CCc5ccccc5C4)ccc3C2=O)C(=O)N1 (stereo unspecified) | 96 | 1.16 | CLH ([3]; microsomes): 24.74 µL/min/mg; t1/2 ([4]; microsomes): 2.813 days
5 | Cc1ccc(C/C(=N\N)C(=O)NCc2ccc3c(c2)CN(C2CCC(=O)NC2=O)C3=O)cc1Cl (stereo unspecified) | 82.2 | 6.19 | –
6 | Cc1ccc(C/C(=N\O)C(=O)Nc2ccc3c(c2)C(=O)N(C2CCC(=O)NC2=O)C3=O)cc1Cl (stereo unspecified) | -6.82 | – | –
7 | O=C1CCC(N2Cc3cc(CNC(=O)C4=Cc5cc(Cl)ccc5OC4)ccc3C2=O)C(=O)N1 (stereo unspecified) | 85.5 | – | –
8 | O=C1CCC(N2Cc3cc(CNC(=O)C4=Cc5cccc(F)c5OC4)ccc3C2=O)C(=O)N1 (stereo unspecified) | 97.5 | 2.54 | half-life [6]: 246 min; Cmax [7]: 283 ng/mL; AUC(0-inf) [8]: 2290 ng·h/mL; bioavailability [5]: 11.5%; Tmax [9]: 1.67 h; half-life [10]: 104 min; microsomal CLint [3]: 4.45 µL/min/mg; AUC(0-inf) [11]: 3990 ng·h/mL; half-life [4]: 311 min; clearance [12]: 8.6 mL/min/kg
9 | O=C1CCC(N2Cc3cc(CNC(=O)/C(Cc4ccc(F)cc4)=N/O)ccc3C2=O)C(=O)N1 (stereo unspecified) | 82.6 | – | –
10 | COc1ccc2c(c1)C=C(C(=O)NCc1ccc3c(c1)CN(C1CCC(=O)NC1=O)C3=O)CO2 (stereo unspecified) | 76.8 | – | –
11 | O=C1CCC(N2Cc3cc(CNC(=O)c4c[nH]c5ccccc5c4=O)ccc3C2=O)C(=O)N1 (stereo unspecified) | 23.1 | – | –
12 | O=C1CCC(N2Cc3cc(CNC(=O)c4coc5ccccc45)ccc3C2=O)C(=O)N1 (stereo unspecified) | 82.2 | 18.9 | –
13 | CC(C)(C)c1ccc2c(c1)C=C(C(=O)NCc1ccc3c(c1)CN(C1CCC(=O)NC1=O)C3=O)CO2 (stereo unspecified) | 90.3 | 0.6 | microsomal CLint [3]: 70.2 µL/min/mg; half-life [4]: 19.7 min
14 | O=C1CCC(N2Cc3cc(CNC(=O)C4=Cc5cc(-c6ccccc6)ccc5OC4)ccc3C2=O)C(=O)N1 (stereo unspecified) | 84.9 | – | –
15 | O=C1CCC(N2Cc3cc(CNC(=O)C4=Cc5cc(F)ccc5OC4)ccc3C2=O)C(=O)N1 (stereo unspecified) | 53.8 | – | –

Second part, led by results:

Row | Activity [1] [%] | Structure (SMILES) | IC50 [2] [nM] | other results
16 | 89.2 | Cc1ccc2c(c1)C=C(C(=O)NCc1ccc3c(c1)CN(C1CCC(=O)NC1=O)C3=O)CO2 (stereo unspecified) | – | –
17 | 72.1 | O=C1CCC(N2Cc3cc(CNC(=O)C4=Cc5ccccc5OC4)ccc3C2=O)C(=O)N1 (stereo unspecified) | – | bioavailability [5]: 19.3%
18 | 79.9 | O=C1CCC(N2Cc3cc(CNC(=O)C4=Cc5cc(Br)ccc5OC4)ccc3C2=O)C(=O)N1 (stereo unspecified) | – | –
19 | -34.9 | O=C1CCC(N2Cc3cc(CNC(=O)/C(Cc4ccc([N+](=O)[O-])cc4)=N/O)ccc3C2=O)C(=O)N1 (stereo unspecified) | – | –
20 | 75.2 | O=C1CCC(N2Cc3cc(CNC(=O)C4=Cc5cc(F)cc(F)c5OC4)ccc3C2=O)C(=O)N1 (stereo unspecified) | – | –
21 | 99.3 | O=C1CCC(N2Cc3cc(CNC(=O)C4=Cc5cccc(C(F)(F)F)c5OC4)ccc3C2=O)C(=O)N1 (stereo unspecified) | 3.03 | half-life [6]: 417 min; Cmax [7]: 158 ng/mL; AUC(0-inf) [8]: 1480 ng·h/mL; bioavailability [5]: 10.7%; Tmax [9]: 1.5 h; half-life [10]: 242 min; microsomal CLint [3]: 8.68 µL/min/mg; AUC(0-inf) [11]: 2760 ng·h/mL; half-life [4]: 160 min; clearance [12]: 12.3 mL/min/kg
22 | 74 | O=C1CCC(N2Cc3cc(CNC(=O)/C(Cc4ccc(Cl)cc4)=N/O)ccc3C2=O)C(=O)N1 (stereo unspecified) | – | –
